Measured values from patent publication US20260028334A1, “N-(3-(BENZO[B]THIOPHENE-2-CARBOXAMIDO)-PHENYL)-2,3-DIHYDROBENZO[B][1,4]DIOXINE-6-CARBOXAMIDE DERIVATIVES AND RELATED COMPOUNDS AS LACTATE/ATP PRODUCTION INHIBITORS FOR THE TREATMENT OF CANCER” (WMT Aktiengesellschaft, priority 2022, published 2026).

Legend:
p70-S6K (Thr389) = p70-S6K (Thr389) (Homo sapiens (Human), UniProt P23443); assay: Western Blot analysis of p70-S6K phosphorylation; type: cell-based; settings: HeLa cells, 24 hours, 10, 30 and 100 nM, also with Bafilomycin A, normoxic condition, FIG. 5
Method: Western Blot analysis was used to detect amounts of specific protein in differently treated cells. Proteins are separated by size, transferred onto a nitrocellulose membrane and incubated with protein specific antibodies. The density of the observed band is proportional to the amount of the specific protein inside the cell.
Cells were plated at 4×10^6 (for hypoxia) or 3×10^6 (for normoxia) cells per […] plate in medium of high glucose DMEM (PAN) supplemented with 10% FBS (PAN), 2 mM glutamine-alanine (PAN), 2 mM pyruvate (Sigma) and 10 ml/L penicillin-streptomycin (PAN), and grown at 37° C. in 0.5% O2, 5% CO2 and 75% humidity. For hypoxia, cells were grown and treated in the Whitley H35 Hypoxystation (Don Whitley Scientific) at 37° C. in 0.5% O2, 5% CO2 and 75% humidity. Next day, the cells were treated with test compounds (FIG. 4: compounds of example 3/8 and 10 at concentrations 0.1, 0.3 and 1 μM, Bafilomycin A at 20 nM; FIG. 5: compounds of example 3/16, 3/8 and 10 at concentrations 10, 30 and 100 nM, Bafilomycin A at 20 nM), as well as with vehicle (DMSO) only, for 24 h. […] Protein concentration of the sample was measured using the DC Protein Assay Kit (Biorad, 5000112), 22 μg of protein extract per well was loaded onto a precast SDS page gel (Biorad, 1704273). […] The chemiluminescence was measured using chemiluminescent substrate (#34580, Thermo Scientific).

[1] = test system: HeLa cell line expressing GFP-LC3; assay: Determination of autophagic flux; type: cell-based; settings: HeLa GFP-LC3 reporter cells, 24 hours of treatment, flow cytometry, FIG. 6
Text: A HeLa cell line stably expressing an artificial protein construct consisting of Green Fluorescent Protein (GFP) as an N-terminal fusion to the human full-length LC3 protein, placed in front of a Red Fluorescent Protein (RFP) as an N terminal fusion to human LC3 lacking its C-terminal Glycine residue (LC3DG), was used to determine autophagic flux (Kaizuka et al., Mol. Cell (2016) 17 835-849) This construct is cleaved in cells by ATG4 at the C-terminus of the full-length LC3 protein, whereupon the GFP-LC3 fragment becomes conjugated to phosphatidyl ethanolamine. The RFP-LC3DG cannot be lipidated, and can be used as an internal reference to produce ratiometric values reporting autophagic flux. The lipidated GFP-LC3 protein becomes incorporated into the membrane of autophagosomes, and upon fusion with lysosomes, is degraded. Consequently, cells with a high autophagic flux have less GFP-LC3, whereas a low autophagic flux results in a relatively higher intracellular amount of GFP-LC3.
Reporter cells were grown as sub-confluent cultures and test compounds were applied at various concentrations. Thapsigargin, a known inducer of autophagy, was used as a positive control. After 24 hours of treatment, a single-cell suspension was prepared by trypsinization, and the GFP fluorescence determined by flow cytometry. A minimum of 10,000 single cells were evaluated for each condition.

Row | p70-S6K phosphorylation (Thr389) (p70-S6K (Thr389)) | Compound | autophagic flux [1]
1 | dose-dependent induction | O=C(Nc1ccc(F)c(NC(=O)c2cc3ccc(OCCCN4CCCC4)cc3s2)c1)c1ccc2c(c1)OCCO2 [3/8] | significantly enhance
2 | dose-dependent induction | Cc1ccc(NC(=O)c2ccc3c(c2)OCCO3)cc1NC(=O)c1cc2cccnc2s1 [3/16] | significantly enhance
